± gives the standard deviation of the averaged measurements.
Compound: CNC(=O)c1ccc(N2C(=S)N(c3ccc(C#N)c(C(F)(F)F)c3)C(=O)C2(C)C)cc1F [MDV3100]
Test: surviving fraction relative to DMSO-only wells; higher = less growth inhibition
Conditions: exposure time: 5 days
Summary of the method: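 Tumour cell lines were seeded in log phase at 250–500 cells per well into 384-well plates. Starting 24 hours later, inhibitors were present continuously for five days at 0.5, 1, 5, 10, 50, 100, 500 and 1000 nM. Surviving fraction, from CellTiter-Glo luminescence, is normalised to the median of DMSO-only wells. Three screens per line were required, with replicate Pearson r >0.7 and median Z' >0.3 for a line to be kept.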

Row | Test System | surviving fraction (0.5 nM) | surviving fraction (1 nM) | surviving fraction (5 nM) | surviving fraction (10 nM) | surviving fraction (50 nM) | surviving fraction (100 nM) | surviving fraction (500 nM) | surviving fraction (1000 nM)
1 | VP229 BREAST | 1.05 ± 0.052 | 0.995 ± 0.089 | 0.878 ± 0.095 | 0.905 ± 0.13 | 1 ± 0.12 | 0.994 ± 0.055 | 0.947 ± 0.07 | 0.806 ± 0.077
2 | HOSMNG BONE | 1.02 ± 0.035 | 1.01 ± 0.023 | 1.02 ± 0.041 | 1.05 ± 0.033 | 1.11 ± 0.054 | 1.18 ± 0.088 | 1.15 ± 0.062 | 1.09 ± 0.032
3 | MDAMB453 BREAST | 0.953 ± 0.045 | 0.942 ± 0.071 | 0.962 ± 0.055 | 0.98 ± 0.07 | 0.956 ± 0.054 | 0.967 ± 0.037 | 0.985 ± 0.032 | 0.924 ± 0.0079
4 | HCC70 BREAST | 0.994 ± 0.021 | 0.955 ± 0.052 | 0.992 ± 0.085 | 0.963 ± 0.16 | 1.06 ± 0.082 | 0.979 ± 0.051 | 0.975 ± 0.076 | 0.88 ± 0.058
5 | HT1080 SOFT TISSUE | 1.052 ± 0.0076 | 1.07 ± 0.03 | 1.063 ± 0.008 | 1.05 ± 0.016 | 1.02 ± 0.018 | 1.04 ± 0.045 | 0.999 ± 0.015 | 0.994 ± 0.027
6 | SJSA1 BONE | 0.471 ± 0.053 | 1.27 ± 0.084 | 1.43 ± 0.11 | 0.332 ± 0.037 | 0.0403 ± 0.0031 | 1.49 ± 0.034 | 0.0293 ± 0.0025 | 1.49 ± 0.023
7 | HCC1806 BREAST | 1.01 ± 0.032 | 1.07 ± 0.067 | 1.13 ± 0.045 | 0.993 ± 0.074 | 1.14 ± 0.045 | 1.12 ± 0.049 | 1.04 ± 0.051 | 1.03 ± 0.06
8 | HS578T BREAST | 0.974 ± 0.073 | 1.05 ± 0.041 | 1.03 ± 0.056 | 0.979 ± 0.091 | 1.15 ± 0.096 | 1.02 ± 0.28 | 1.01 ± 0.053 | 0.991 ± 0.085
9 | T47D BREAST | 0.9561 ± 0.0072 | 0.988 ± 0.044 | 0.983 ± 0.021 | 0.894 ± 0.035 | 1.1 ± 0.015 | 1.02 ± 0.036 | 1.03 ± 0.047 | 0.999 ± 0.041
10 | ZR751 BREAST | 1.12 ± 0.16 | 1.14 ± 0.1 | 1.04 ± 0.042 | 1.04 ± 0.043 | 1.17 ± 0.1 | 1.12 ± 0.076 | 1.22 ± 0.1 | 1.08 ± 0.079
11 | MDAMB231 BREAST | 0.961 ± 0.034 | 0.954 ± 0.035 | 0.978 ± 0.022 | 0.969 ± 0.012 | 0.988 ± 0.034 | 0.997 ± 0.025 | 0.96 ± 0.026 | 0.944 ± 0.014
12 | HSSYII SYNOVIAL | 0.881 ± 0.042 | 0.848 ± 0.052 | 0.903 ± 0.022 | 0.545 ± 0.034 | 0.908 ± 0.028 | 0.9 ± 0.066 | 0.949 ± 0.032 | 0.721 ± 0.01
13 | MDAMB436 BREAST | 0.965 ± 0.086 | 0.884 ± 0.076 | 0.9783 ± 0.0076 | 0.95 ± 0.024 | 0.999 ± 0.1 | 0.9082 ± 0.0022 | 0.925 ± 0.083 | 0.86 ± 0.036
14 | MDAMB361 BREAST | 0.907 ± 0.073 | 0.81 ± 0.075 | 0.935 ± 0.068 | 0.874 ± 0.074 | 0.831 ± 0.14 | 0.806 ± 0.074 | 0.921 ± 0.085 | 0.831 ± 0.077
15 | U2OS BONE | 1.003 ± 0.0095 | 1.02 ± 0.022 | 1.01 ± 0.027 | 1.01 ± 0.018 | 1.04 ± 0.026 | 1.03 ± 0.018 | 1.06 ± 0.033 | 0.999 ± 0.047
16 | NOS1 BONE | 1.18 ± 0.11 | 1 ± 0.043 | 1.11 ± 0.069 | 1.1 ± 0.2 | 1.04 ± 0.062 | 1.16 ± 0.086 | 0.972 ± 0.073 | 1.03 ± 0.027
17 | CASKI CERVIX | 0.904 ± 0.031 | 0.894 ± 0.047 | 0.99 ± 0.026 | 0.903 ± 0.059 | 0.944 ± 0.022 | 1.08 ± 0.073 | 0.95 ± 0.046 | 0.992 ± 0.072
18 | HELA CERVIX | 0.931 ± 0.035 | 0.923 ± 0.0096 | 0.929 ± 0.023 | 0.888 ± 0.036 | 0.999 ± 0.034 | 1.02 ± 0.065 | 1.08 ± 0.069 | 1.03 ± 0.047

Row | Test System | surviving fraction (0.5 nM) | surviving fraction (1 nM) | surviving fraction (5 nM) | surviving fraction (10 nM) | surviving fraction (50 nM) | surviving fraction (100 nM) | surviving fraction (500 nM) | surviving fraction (1000 nM)
19 | NY BONE | 0.886 ± 0.021 | 0.887 ± 0.029 | 0.943 ± 0.035 | 0.933 ± 0.023 | 0.93 ± 0.0093 | 1.01 ± 0.022 | 0.924 ± 0.026 | 0.884 ± 0.039
20 | LNCAP PROSTATE | 1.05 ± 0.15 | 0.962 ± 0.035 | 0.912 ± 0.089 | 0.957 ± 0.13 | 0.979 ± 0.012 | 0.925 ± 0.053 | 0.663 ± 0.033 | 0.497 ± 0.079
21 | A549 LUNG | 0.971 ± 0.011 | 0.941 ± 0.029 | 0.978 ± 0.011 | 0.934 ± 0.032 | 1 ± 0.038 | 1.01 ± 0.015 | 1.01 ± 0.033 | 0.983 ± 0.04
22 | MDAMB157 BREAST | 0.935 ± 0.093 | 0.954 ± 0.071 | 0.933 ± 0.049 | 1.01 ± 0.079 | 0.927 ± 0.077 | 0.952 ± 0.071 | 0.853 ± 0.044 | 0.866 ± 0.097
23 | SUM159 BREAST | 1.01 ± 0.034 | 1.005 ± 0.0052 | 1.01 ± 0.011 | 0.996 ± 0.01 | 1.01 ± 0.013 | 1.014 ± 0.0025 | 1.02 ± 0.015 | 0.9937 ± 0.0058
24 | SUM149.B1*.S BREAST | 0.994 ± 0.02 | 0.925 ± 0.017 | 0.979 ± 0.063 | 0.578 ± 0.014 | 1.03 ± 0.04 | 0.9605 ± 0.0031 | 1.02 ± 0.011 | 0.694 ± 0.049
25 | SCC003 HEADNECK | 0.928 ± 0.12 | 0.808 ± 0.069 | 1 ± 0.049 | 0.996 ± 0.051 | 1.06 ± 0.032 | 1.02 ± 0.059 | 1.02 ± 0.044 | 0.858 ± 0.098
26 | 143B BONE | 1.07 ± 0.061 | 1.1 ± 0.1 | 1.09 ± 0.086 | 1.09 ± 0.088 | 1.13 ± 0.12 | 1.13 ± 0.11 | 1.11 ± 0.11 | 1.1 ± 0.093
27 | CME SYNOVIAL | 1.2 ± 0.075 | 0.852 ± 0.11 | 1.09 ± 0.089 | 0.18 ± 0.044 | 1.22 ± 0.053 | 1.09 ± 0.13 | 1.16 ± 0.1 | 0.451 ± 0.068
28 | SUM149 BREAST | 1.03 ± 0.047 | 0.922 ± 0.087 | 0.897 ± 0.038 | 0.36 ± 0.043 | 1.07 ± 0.095 | 0.951 ± 0.021 | 1.01 ± 0.092 | 0.546 ± 0.013
29 | SCC90 HEADNECK | 0.893 ± 0.093 | 0.91 ± 0.076 | 1.04 ± 0.11 | 0.942 ± 0.1 | 1.17 ± 0.2 | 1.03 ± 0.13 | 0.86 ± 0.054 | 0.925 ± 0.099
30 | G292 BONE | 0.9907 ± 0.009 | 1.03 ± 0.02 | 1.03 ± 0.059 | 1.02 ± 0.013 | 0.956 ± 0.032 | 0.985 ± 0.036 | 0.961 ± 0.013 | 0.865 ± 0.024
31 | YAMATO SYNOVIAL | 1.12 ± 0.074 | 0.741 ± 0.028 | 1.08 ± 0.076 | 0.241 ± 0.015 | 1.22 ± 0.12 | 0.977 ± 0.081 | 1.15 ± 0.053 | 0.352 ± 0.018
32 | MHM BONE | 1 ± 0.039 | 1 ± 0.054 | 1.01 ± 0.025 | 1.01 ± 0.039 | 1.02 ± 0.02 | 1.01 ± 0.029 | 0.973 ± 0.012 | 0.952 ± 0.0046
33 | HCC1395 BREAST | 1.18 ± 0.027 | 1.14 ± 0.089 | 1.24 ± 0.075 | 1.08 ± 0.19 | 1.18 ± 0.15 | 1.1 ± 0.15 | 1.18 ± 0.16 | 1.16 ± 0.024
34 | SCC47 HEADNECK | 0.936 ± 0.15 | 0.826 ± 0.021 | 1 ± 0.04 | 1.05 ± 0.21 | 1.09 ± 0.17 | 1.03 ± 0.14 | 0.906 ± 0.04 | 0.829 ± 0.11
35 | SG28 HEADNECK | 1.19 ± 0.035 | 1.06 ± 0.0078 | 1.02 ± 0.086 | 0.762 ± 0.034 | 0.949 ± 0.062 | 1.01 ± 0.06 | 1.11 ± 0.067 | 0.946 ± 0.13
